Measured values reported in patent US20250332173A1, “COMPOUNDS AND METHODS FOR MODULATING NUCLEIC ACID SPLICING” (REMIX THERAPEUTICS INC., priority 2021, published 2025).
Read-outs that look alike come from different tables or passages of the source.

Experiments:
MYB = experiment: HiBiT protein abundance assay, MYB HiBiT K562 cell line; format: cell-based, human
Experimental: (§1) Compounds described herein were used to screen for effects on quantitative protein abundance using a HiBit assay system (Promega). Quantitative protein abundance was determined by measuring the protein levels of HiBit-tagged protein targets expressed in cell culture via luminescence using the Nano-Glo HiBiT Lytic Detection System, which uses a split complementation assay format to reconstitute NanoBiT enzyme to generate a luminescent signal. A protein abundance assay was developed such that endogenous protein targets could be modified with the HiBiT peptide tag and their abundance could be assessed after compound treatment. Briefly, K562 cell lines containing a HiBiT-modification were treated with various compounds described herein (e.g., compounds of Formulas (I), (II), (III), (IV), (V), (VI), (VII), (VIII), or (IX)). After treatment for 24 hours, the protein abundance of a specific target was determined by measuring luminescence.
(§2) • Promega Nano-Glo HiBiT Lytic Detection System (cat #N3030) • Corning 384-well TC-treated microplates (cat #3570) • Synthego Engineered Cells Knock-In Clones
(§3) Cells were maintained in IMDM with 10% FBS. Before the assay, cells were diluted with […] growth media (IMDM+[…] media) and were seeded in a 384-well plate at a density of 10,000 cells/well (for each cell line listed in Table 5). Each compound was prepared as a 10-point 3-fold serial dilution in DMSO with the top dose at a final concentration of 10 μM in the well. Unmodified K562 cells were added at the previously specified density with DMSO to serve as an assay baseline and positive control (PC) and DMSO only with the respective modified cell lines was added to the negative control (NC) columns. Final DMSO concentration was kept at or below 0.25%. Treated cell plates were placed in an incubator at 37° C. with […] for 24 hours. After 24 hours, 25 μL of Complete HiBit Lytic reagent was added to each well at room temperature (e.g. one plate requiring 10 mL Lytic Buffer, 100 μL LgBiT Protein, 200 μL Lytic Substrate), shaken for 5 minutes at 600 RPM, then left to sit for 10 minutes for signal to stabilize before reading on a Spark Cyto plate reader (Tecan) with a 500 ms measurement time.
(§4) To determine compound effects on protein abundance of each target in Table 5, the percent response for each respective cell line was calculated at each compound concentration as follows:
(§5) For the normalized response at each concentration, a four-parameter logistical regression was fit to the data and the response was interpolated at the […] to determine a concentration for protein abundance at […] the untreated control.

SMN2 mRNA = experiment: RT-qPCR splicing assay, SMN2 canonical junction (CJ) mRNA; format: cell-based, human; conditions: Homo sapiens
Procedure, shortened: (§6)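 Exposure: 24 h, 37 °C, 11-point 3-fold dilutions from 10 uM final, DMSO at or below 0.25%, in A673 or K562 cells. Detection: cell-lysate RT-qPCR of canonical junction mRNA relative to GAPDH, GUSB or PPIA.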

HTT mRNA = experiment: RT-qPCR splicing assay, HTT canonical junction (CJ) and alternative junction (AJ) mRNA; format: cell-based, human; conditions: Homo sapiens
Procedure, shortened: (§7)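 Following a 24-hour incubation of A673 or K562 cells with serially diluted compound (3-fold steps, highest final 10 uM), the lysates undergo cDNA synthesis plus qPCR. Canonical and alternative junctions are each quantified against PPIA, GAPDH or GUSB.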

Target C [1] = experiment: RT-qPCR splicing assay panel, Target C canonical junction (CJ) mRNA; format: cell-based, human; conditions: Homo sapiens
Procedure, shortened: as §6

Target C [2] = experiment: HiBiT protein abundance assay, Target C (Promega Nano-Glo HiBiT Lytic Detection System, knock-in K562 cell line); format: cell-based, human; conditions: Homo sapiens, K562, 24 h, read-out: Effect on protein abundance, Target C (IC50 category)
Experimental: as §2, §3, §4, §5

MYB mRNA = experiment: RT-qPCR splicing assay, MYB canonical junction (CJ) and alternative junction (AJ) mRNA; format: cell-based, human; conditions: Homo sapiens
Procedure, shortened: as §7

[3] = tested on: K562 (human chronic myelogenous leukemia) cells; experiment: Cell Titer Glo 2.0 cell viability assay; format: cell-based; conditions: Homo sapiens, K562, 72 h, read-out: K562 GI50
HTT = experiment: HiBiT protein abundance assay, HTT HiBiT K562 cell line; format: cell-based, human
Experimental: as §1, §2, §3, §4, §5

[4] = read-out: Effect on protein abundance, MYB (IC50 category); HiBiT K562 cell line, 24 hours, top dose 10 μM
[5] = read-out: Effect on protein abundance, HTT (IC50 category); HiBiT K562 cell line, 24 hours, top dose 10 μM
[6] = HiBiT K562 cell line, 24 hours, top dose 10 μM; read-out: Effect on protein abundance, MYB (IC50 category)
[7] = HiBiT K562 cell line, 24 hours, top dose 10 μM
[8] = K562 cells, 72 hours, Cell Titer Glo 2.0
[9] = HiBiT K562 cell line, 24 hours, top dose 10 μM; read-out: Effect on protein abundance, HTT (IC50 category)
[10] = decrease in HTT canonical junction (CJ) mRNA, RT-qPCR, read-out: HTT CJ IC50
[11] = increase in HTT alternative junction (AJ) mRNA, RT-qPCR, read-out: HTT AJ AC50

Row | SMILES | IC50 (MYB; [6]) [nM] | IC50 (Target C [2]; [7]) [nM] | GI50 [3, 8] [nM] | IC50 (HTT; [9]) [nM] | other results
1 | Cc1cn2nc(-c3ccc4c(=O)n(C5CCNCC5)ccc4c3)cc(CC(=O)N(C)C)c2n1 [Compound 532, N,N-dimethyl-2-[2-methyl-6-[1-oxo-2-(4-piperidyl)-6-isoquinolyl]imidazo[1,2-b]pyridazin-8-yl]acetamide] |  |  |  |  | IC50 (MYB; [4]): 100 to 1000 nM; IC50 (SMN2 mRNA; read-out: SMN2 IC50 (decrease in CJ mRNA levels)): < 100 nM; AC50 (HTT mRNA; read-out: HTT AJ AC50 (nM)): 100 to 1000 nM; IC50 (HTT mRNA; read-out: HTT CJ IC50 (nM)): 100 to 1000 nM; IC50 (HTT mRNA; read-out: HTT IC50 (decrease in CJ mRNA levels)): 100 to 1000 nM; IC50 (Target C [1]; read-out: Target C IC50 (decrease in CJ mRNA levels)): 1000 to 10000 nM; IC50 (Target C [2]): 100 to 1000 nM; AC50 (MYB mRNA; read-out: MYB AJ AC50 (nM)): 100 to 1000 nM; IC50 (MYB mRNA; read-out: MYB CJ IC50 (nM)): 100 to 1000 nM; IC50 (MYB mRNA; read-out: MYB IC50 (decrease in CJ mRNA levels)): 100 to 1000 nM; GI50 [3]: 100 to 1000 nM; IC50 (HTT; [5]): 100 to 1000 nM
2 | Cc1cn2c(n1)CCC(c1cc(F)c3c(=O)n(C4CCNCC4)cnc3c1)C2 (stereo not drawn) [Compound 502, 5-fluoro-7-{2-methyl-5H,6H,7H,8H-imidazo[1,2-a]pyridin-6-yl}-3-(piperidin-4-yl)quinazolin-4-one] | > 10000 | > 10000 | > 10000 | > 10000 | 
3 | Cc1cn2nc(-c3cc(O)c4c(=O)n([C@@H]5CCNC6(CC6)C5)ncc4c3)cc(C)c2n1 [Compound 470] | 100 to 1000 | < 100 | 100 to 1000 | < 100 | 
4 | Cc1cn2nc(-c3ccc4c(=O)n(C5CCN(C6CCC6)C6(CC6)C5)ncc4n3)cc(C)c2n1 (stereo not drawn) [Compound 1540, 6-(4-cyclobutyl-4-azaspiro[2.5]octan-7-yl)-2-(2,8-dimethylimidazo[1,2-b]pyridazin-6-yl)pyrido[2,3-d]pyridazin-5-one] |  |  |  |  | IC50 (MYB; [4]): 100 to 1000 nM; IC50 (SMN2 mRNA; read-out: SMN2 (decrease in CJ mRNA levels, IC50)): < 100 nM; IC50 (HTT mRNA; read-out: HTT (decrease in CJ mRNA levels, IC50)): 100 to 1000 nM; AC50 (HTT mRNA; read-out: HTT AJ AC50 (nM)): 100 to 1000 nM; IC50 (HTT mRNA; read-out: HTT CJ IC50 (nM)): 100 to 1000 nM; IC50 (Target C [1]; read-out: Target C (decrease in CJ mRNA levels, IC50)): 100 to 1000 nM; IC50 (Target C [2]): 100 to 1000 nM; IC50 (MYB mRNA; read-out: MYB (decrease in CJ mRNA levels, IC50)): 100 to 1000 nM; AC50 (MYB mRNA; read-out: MYB AJ AC50 (nM)): 100 to 1000 nM; IC50 (MYB mRNA; read-out: MYB CJ IC50 (nM)): 100 to 1000 nM; GI50 [3]: 100 to 1000 nM; IC50 (HTT; [5]): 100 to 1000 nM
5 | Cc1cc(-c2ccc3c(=O)n(C4CCNCC4)c(C)nc3c2)cc2cn(C)nc12 [Compound 313] | 1000 to 10000 | > 10000 | 1000 to 10000 | > 10000 | IC50 (SMN2 mRNA; Table 5 panel, canonical junction qPCR, compound concentration having 50% response in CJ decrease, read-out: SMN2 IC50 (decrease in CJ mRNA levels)): 100 to 1000 nM; IC50 (HTT mRNA; [10]): > 10000 nM; AC50 (HTT mRNA; [11]): > 10000 nM; IC50 (HTT mRNA; Table 5 panel, canonical junction qPCR, compound concentration having 50% response in CJ decrease, read-out: HTT IC50 (decrease in CJ mRNA levels)): > 10000 nM; IC50 (Target C [1]; Table 5 panel, canonical junction qPCR, compound concentration having 50% response in CJ decrease, read-out: Target C IC50 (decrease in CJ mRNA levels)): > 10000 nM
6 | O=c1c2c(F)cc(-c3cn[nH]c3)cc2ncn1C1CCNCC1 [Compound 321] | > 10000 | > 10000 | > 10000 | > 10000 | IC50 (HTT mRNA; [10]): > 10000 nM; AC50 (HTT mRNA; [11]): > 10000 nM; IC50 (MYB mRNA; decrease in MYB canonical junction (CJ) mRNA, RT-qPCR, read-out: MYB CJ IC50): 1000 to 10000 nM; AC50 (MYB mRNA; increase in MYB alternative junction (AJ) mRNA, RT-qPCR, read-out: MYB AJ AC50): 1000 to 10000 nM
7 | Cc1c(O)c(-c2ncc3c(=O)n([C@H]4CC[C@H](N)C4)ccc3n2)cc2cn(C)nc12 [Compound 1334] | 100 to 1000 | 1000 to 10000 | 100 to 1000 | 100 to 1000 | 
8 | Cc1cn2nc(-c3cc(C)c4c(=O)n([C@@H]5CCNC6(CC6)C5)ncc4c3)cc(C)c2n1 [Compound 468] | < 100 | < 100 | 100 to 1000 | < 100 | 
9 | Cc1cn2nc(-c3cc(N)c4c(=O)n(C5CCNCC5)ncc4c3)cc(C)c2n1 [Compound 566] | 100 to 1000 | 100 to 1000 | 100 to 1000 | 100 to 1000 | 
10 | Cc1c(O)c(-c2ncc3c(=O)n(C45CCC(N)(C4)C5)ccc3n2)cc2cn(C)nc12 [Compound 1324] | 100 to 1000 | 1000 to 10000 | 100 to 1000 | 1000 to 10000 | 
11 | Cc1c(O)c(-c2ncc3c(=O)n(C4CCNCC4)ccc3n2)cc2cn(C)nc12 [Compound 1224] | < 100 | 100 to 1000 | < 100 | < 100 | 
12 | Cc1c(O)c(-c2ncc3c(=O)n([C@H]4C[C@H]5CC[C@@H](C4)N5)ccc3n2)cc2cn(C)nc12 [Compound 1329] | < 100 | 100 to 1000 | 100 to 1000 | 100 to 1000 | 
13 | Cc1cn2cc(-c3ncc4c(=O)n(C5CCNCC5)ccc4n3)cc(F)c2n1 [Compound 1213, 2-(8-fluoro-2-methylimidazo[1,2-a]pyridin-6-yl)-6-(piperidin-4-yl)pyrido[4,3-d]pyrimidin-5(6H)-one] | 100 to 1000 | 100 to 1000 | 100 to 1000 | 100 to 1000 | 
14 | Cc1c(O)c(-c2ccc3c(=O)n(C4CCNCC4)cnc3n2)cc2cn(C)nc12 [Compound 505, 7-(6-hydroxy-2,7-dimethyl-2H-indazol-5-yl)-3-(piperidin-4-yl)pyrido[2,3-d]pyrimidin-4(3H)-one] | 100 to 1000 | 100 to 1000 | 100 to 1000 | 100 to 1000 | 
15 | Cc1c(O)c(-c2ccc3c(=O)n(C4CCNCC4)ccc3n2)cc2cn(C)nc12 [Compound 1234] | < 100 | < 100 | < 100 | < 100 | 
16 | COc1c(-c2cc3ccn(C4CCNCC4)c(=O)c3cn2)cc2cn(C)nc2c1C [Compound 1218] | > 10000 | > 10000 | > 10000 | > 10000 | 
17 | Cc1nc2cc(O)c(-c3ccc4c(=O)n(C5CCNCC5)ccc4n3)cc2o1 [Compound 1237] | < 100 | < 100 | < 100 | < 100 | 
18 | Cc1c(O)c(-c2ncc3c(=O)n(C4CCNC(C)C4)ccc3n2)cc2cn(C)nc12 (stereo not drawn) [Compound 1320] | < 100 | 100 to 1000 | < 100 | 100 to 1000 | 
19 | Cn1cc2cc(-c3ccc4c(=O)n(C5CCNCC5)ccc4n3)c(O)c(F)c2n1 [Compound 1226] | < 100 | < 100 | < 100 | < 100 | 
20 | Cc1cn2nc(-c3cc(C)c4c(=O)n([C@H]5CCNC6(CC6)C5)ncc4c3)cc(C)c2n1 [Compound 467] | 100 to 1000 | 100 to 1000 | 1000 to 10000 | 100 to 1000 | 
